The values that follow come from patent US10827969B2, “Breath test device and method” (EXALENZ BIOSCIENCE LTD., priority 2005, dated 2020).

The structures appear in SMILES notation.

On the set-up of data set [1]: species or system subject. Particulars: in vivo. The text has this:
One of the most common methods for determining the rate of metabolism of methacetin is to analyze the rate of metabolism of the methoxy group (CH3O) of methacetin to carbon dioxide, which is excreted in exhaled breath. To distinguish the carbon dioxide derived from methacetin from all other sources of carbon dioxide, the methoxy group is labeled with ^13C, a stable isotope of carbon. Thus, all the CO2 derived from methacetin will contain ^13C (^13CO2) in contrast to all other sources of CO2, which will contain approximately 99%^12C, and 1% ^13C, the naturally abundant isotope. Thus, the rate of excretion of ^13CO2 (normalized to ^12CO2) above background following the administration of methacetin-methoxy-^13C indicates its rate of metabolism, which relates to the hepatic cell “health” and to the functional mass of the liver.
The curve depicts the rate of metabolism of ^13C-Methacetin in % dose/hour as measured in breath. The peak of the curve (marked by the arrow) appears after 0.4 h (hours). The PDR peak height is approximately at 23.5% dose/hour.
The following are two examples that illustrate this phenomenon. […]

A short description of data set [2]: Two weeks stability of methacetin formulations (HPLC assay, appearance). The data set is classed as physicochemical. Particulars: 37-38 mg/100 mL methanol, room temperature, at least one week. On the procedure: In the first three items, formulations containing 75 mg methacetin/200 mL solvent were prepared: 2-1. Formulation-1: 76.04 mg methacetin; 62.94 mg SLS; water to final volume of 200 mL. 2-2. Formulation-2: 75.87 mg methacetin; 4 mL PPG-400; water to final volume of 200 mL. 2-3. Formulation-3: 76.66 mg methacetin; 4 mL tween-80; water to final volume of 200 mL. The first three formulated solutions were stored at room temperature protected from light. The fourth solution was stored in an incubator for 3 months at 40° C. On each testing interval, the formulated samples were analyzed according to the following method: [table] The samples were diluted to a concentration of about 37 ppm (37 mg in 1000 ml) and analyzed against a standard solution at the same concentration. The standard was provided by the sponsor (Adrich 428264 batch: UI 2335). Purity of 100% was used in calculations. The methacetin sample that was used for the formulations was also used as a standard for the HPLC determination. […] The stock solution was diluted ×10 in mobile phase solution before the HPLC analysis. The assay was conducted according to Analyst SOP No. 05-001-03, and the HPLC method that was provided by the sponsor.

A short description of data set [3]: Conditions for dissolving methacetin: dissolving time. Format: physicochemical. The settings on record: room temperature (approximately 25° C.).
Protocol: It was evaluated whether the thermal cycle for dissolving the API (active pharmaceutical ingredient, such as methacetin) can be eliminated from or at least lowered in the process. Cold vortexing, as well as the assistance of excipients acceptable by the international pharmaceutical regulations and capable of assisting in improving the dissolution of the API, were utilized.
Experimentation trials were performed, in order to eliminate the heating stage while dissolving the API (methacetin) in purified water.
Therefore, alternative directions for improving the API dissolution were tried. Solvents capable of dissolving the API and approvable for utilization in pharmaceutical preparations were utilized for this task.
30% by volume of the purified water of the preparation was replaced by the alternative solvent. The dissolving time of each preparation was recorded.
Therefore, a gradient of temperature was utilized to completely dissolve the methacetin in the preparation. An in-process control testing was applied at this stage. A UV specific absorbance analytical method, without further manipulation of the sample, was utilized for confirming that the solid has been completely dissolved in the preparation.
Data set [4] in a line: Decomposition of methacetin on heating in solution. The data set is classed as physicochemical. The settings on record: heating at 80° C. for three hours. The procedure: There is thus provided, according to some embodiments, a method of controlled dissolution of methacetin. Methacetin seems to be stable after short term warming to <80° C. in solution. […] Therefore, according to an embodiment of the invention, a solution of methacetin may be prepared by dissolution in warm water.

The conditions of data set [5]: as known in the art; cited from earlier work.

Turning to `CC(=O)Nc1ccc(O[13CH3])cc1` [^13C-Methacetin, methacetin-methoxy-^13C], in data set [1], the PDR peak height was about 23.5 % dose/hour and the “time of appearance of the PDR peak” value is 0.4 h.

Regarding `COc1ccc(NC(C)=O)cc1` [methacetin, N-(4-Methoxyphenyl)acetamide], the “stability of methacetin stock solution” value in data set [2] was “stable”. Moreover, the dissolution in water entry in data set [3] is “does not dissolve well”. Also, the methacetin decomposed in data set [4] was 0.018%. The hepatic extraction ratio result in data set [5] is recorded as “more than 0.8”.
